Reference: BindingDB's records for doi:10.1016/j.bmcl.2019.126637 (Eli Lilly, 2019)

Biological target: Cyclin-Y/Cyclin-dependent kinase 16 (Homo sapiens, UniProt Q00536+Q8ND76)
Experiment: Competitive irreversible inhibition of CDK16/cyclin Y (unknown origin) in presence of Km ATP

Cyclin-Y/Cyclin-dependent kinase 16, sequence (Q00536 whole entry): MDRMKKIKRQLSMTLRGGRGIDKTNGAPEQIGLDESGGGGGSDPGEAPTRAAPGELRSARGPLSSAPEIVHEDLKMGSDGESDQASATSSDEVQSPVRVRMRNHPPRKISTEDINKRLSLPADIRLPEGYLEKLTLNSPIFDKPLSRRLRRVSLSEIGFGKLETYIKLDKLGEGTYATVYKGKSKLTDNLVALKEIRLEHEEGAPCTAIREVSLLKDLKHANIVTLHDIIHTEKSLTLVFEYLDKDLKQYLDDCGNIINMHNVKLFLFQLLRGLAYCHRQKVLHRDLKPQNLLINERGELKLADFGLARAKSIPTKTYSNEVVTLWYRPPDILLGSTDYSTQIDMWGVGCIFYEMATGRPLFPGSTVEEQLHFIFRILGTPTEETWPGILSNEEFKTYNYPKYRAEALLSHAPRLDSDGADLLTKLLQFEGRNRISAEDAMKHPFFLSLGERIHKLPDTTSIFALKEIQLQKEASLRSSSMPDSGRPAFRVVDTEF
Cyclin-Y/Cyclin-dependent kinase 16, sequence (Q8ND76 whole entry): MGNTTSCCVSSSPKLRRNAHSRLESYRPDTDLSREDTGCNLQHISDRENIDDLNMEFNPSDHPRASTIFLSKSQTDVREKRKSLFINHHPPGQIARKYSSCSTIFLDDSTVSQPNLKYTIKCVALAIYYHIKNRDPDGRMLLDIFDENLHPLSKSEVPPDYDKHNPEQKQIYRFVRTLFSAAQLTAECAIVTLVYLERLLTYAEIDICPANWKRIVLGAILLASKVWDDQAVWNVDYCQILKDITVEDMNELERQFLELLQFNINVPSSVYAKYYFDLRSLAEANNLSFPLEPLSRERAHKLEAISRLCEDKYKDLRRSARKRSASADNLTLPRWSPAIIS

For CN(C)C/C=C/C(=O)Nc1cccc(S(=O)(=O)N2CCC(NC(=O)c3n[nH]cc3NC(=O)c3c(Cl)cc(Cl)cc3Cl)CC2)c1, which IC50 is on record?
The IC50 was 10 nM.
